From the kinase profiling compilation of Christmann-Franck et al. (2016)

Assays:
Test in all cases: KINOMEscan competition binding
Conditions in all cases: compound 10.0 µM
CLK1 (human) = CLK1 (human) (UniProt P49759)
IKBKB (human) = IKBKB (human) (UniProt O14920)
PLK1 (human) = PLK1 (human) (UniProt P53350)
DCLK1 (human) = DCLK1 (human) (UniProt O15075)
DYRK2 (human) = DYRK2 (human) (UniProt Q92630)
CLK2 (human) = CLK2 (human) (UniProt P49760)
CHEK1 (human) = CHEK1 (human) (UniProt O14757)
CDK8 (human) = CDK8 (human) (UniProt P49336)
CAMKK1 (human) = CAMKK1 (human) (UniProt Q8N5S9)
TAOK2 (human) = TAOK2 (human) (UniProt Q9UL54)
CAMKK2 (human) = CAMKK2 (human) (UniProt Q96RR4)
CDC42BPG (human) = CDC42BPG (human) (UniProt Q6DT37)
SBK1 (human) = SBK1 (human) (UniProt Q52WX2)
[1] = biological target: JAK3 JH1 catalytic (human) (UniProt P52333)
CHUK (human) = CHUK (human) (UniProt O15111)
NLK (human) = NLK (human) (UniProt Q9UBE8)
STK11 (human) = STK11 (human) (UniProt Q15831)
PRKAA2 (human) = PRKAA2 (human) (UniProt P54646)
EPHB4 (human) = EPHB4 (human) (UniProt P54760)
MYLK (human) = MYLK (human) (UniProt Q15746)
PIM3 (human) = PIM3 (human) (UniProt Q86V86)
STK32A (human) = STK32A (human) (UniProt Q8WU08)
MAP4K1 (human) = MAP4K1 (human) (UniProt Q92918)
GRK1 (human) = GRK1 (human) (UniProt Q15835)
[2] = biological target: JAK1 JH1 catalytic (human) (UniProt P23458)
CaMK1 (human) = CaMK1 (human) (UniProt Q14012)
ERBB4 (human) = ERBB4 (human) (UniProt Q15303)
FLT4 (human) = FLT4 (human) (UniProt P35916)
TEK (human) = TEK (human) (UniProt Q02763)
PIM1 (human) = PIM1 (human) (UniProt P11309)
CAMK2A (human) = CAMK2A (human) (UniProt Q9UQM7)
FRK (human) = FRK (human) (UniProt P42685)
IRAK4 (human) = IRAK4 (human) (UniProt Q9NWZ3)
NEK6 (human) = NEK6 (human) (UniProt Q9HC98)
STK35 (human) = STK35 (human) (UniProt Q8TDR2)
RPS6KA4 KD2 (human) = RPS6KA4 KD2 (human) (UniProt O75676)
MAPK6 (human) = MAPK6 (human) (UniProt Q16659)
TAOK1 (human) = TAOK1 (human) (UniProt Q7L7X3)
PAK2 (human) = PAK2 (human) (UniProt Q13177)
[3] = test system: EGFR (human), P00533 [T790M/L858R]

Sequence of FLT4 (human) (P35916 whole entry, looked up): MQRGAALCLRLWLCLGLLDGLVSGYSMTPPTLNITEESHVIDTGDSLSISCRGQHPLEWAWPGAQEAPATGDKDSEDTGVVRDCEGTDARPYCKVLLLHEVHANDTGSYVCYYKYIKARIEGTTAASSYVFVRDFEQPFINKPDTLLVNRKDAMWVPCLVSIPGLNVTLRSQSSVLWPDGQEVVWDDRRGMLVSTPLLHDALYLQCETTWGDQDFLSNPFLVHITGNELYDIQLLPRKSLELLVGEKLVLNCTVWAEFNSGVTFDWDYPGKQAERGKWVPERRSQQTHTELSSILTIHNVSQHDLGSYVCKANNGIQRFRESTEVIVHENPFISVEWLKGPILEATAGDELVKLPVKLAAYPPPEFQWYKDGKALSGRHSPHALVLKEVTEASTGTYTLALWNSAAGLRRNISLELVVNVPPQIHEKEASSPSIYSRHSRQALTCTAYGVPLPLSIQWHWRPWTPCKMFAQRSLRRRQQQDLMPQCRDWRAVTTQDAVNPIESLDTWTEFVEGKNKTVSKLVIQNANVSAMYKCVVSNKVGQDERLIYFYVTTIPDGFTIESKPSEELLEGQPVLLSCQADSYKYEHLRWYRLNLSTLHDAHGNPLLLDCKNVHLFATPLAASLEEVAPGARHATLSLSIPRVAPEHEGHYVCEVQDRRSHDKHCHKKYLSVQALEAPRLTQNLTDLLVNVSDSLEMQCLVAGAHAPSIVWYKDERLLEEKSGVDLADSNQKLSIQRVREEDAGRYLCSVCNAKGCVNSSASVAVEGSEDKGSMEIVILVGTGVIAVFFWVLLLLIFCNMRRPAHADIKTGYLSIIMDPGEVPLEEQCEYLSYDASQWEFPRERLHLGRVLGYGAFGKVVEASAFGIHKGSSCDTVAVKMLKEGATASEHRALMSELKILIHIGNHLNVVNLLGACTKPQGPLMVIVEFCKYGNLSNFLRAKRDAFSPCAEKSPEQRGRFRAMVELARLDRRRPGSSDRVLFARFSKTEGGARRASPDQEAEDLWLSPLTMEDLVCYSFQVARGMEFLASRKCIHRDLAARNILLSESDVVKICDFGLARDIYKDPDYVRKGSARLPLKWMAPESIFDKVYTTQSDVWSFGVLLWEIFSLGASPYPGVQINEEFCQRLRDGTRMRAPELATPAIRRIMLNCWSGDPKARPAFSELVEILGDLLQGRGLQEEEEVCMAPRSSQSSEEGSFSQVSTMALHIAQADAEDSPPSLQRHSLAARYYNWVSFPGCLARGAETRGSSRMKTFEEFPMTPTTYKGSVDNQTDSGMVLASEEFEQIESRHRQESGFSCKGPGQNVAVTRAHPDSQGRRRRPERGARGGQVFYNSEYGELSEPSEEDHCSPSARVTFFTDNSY
Sequence of EPHB4 (human) (P54760 whole entry, looked up): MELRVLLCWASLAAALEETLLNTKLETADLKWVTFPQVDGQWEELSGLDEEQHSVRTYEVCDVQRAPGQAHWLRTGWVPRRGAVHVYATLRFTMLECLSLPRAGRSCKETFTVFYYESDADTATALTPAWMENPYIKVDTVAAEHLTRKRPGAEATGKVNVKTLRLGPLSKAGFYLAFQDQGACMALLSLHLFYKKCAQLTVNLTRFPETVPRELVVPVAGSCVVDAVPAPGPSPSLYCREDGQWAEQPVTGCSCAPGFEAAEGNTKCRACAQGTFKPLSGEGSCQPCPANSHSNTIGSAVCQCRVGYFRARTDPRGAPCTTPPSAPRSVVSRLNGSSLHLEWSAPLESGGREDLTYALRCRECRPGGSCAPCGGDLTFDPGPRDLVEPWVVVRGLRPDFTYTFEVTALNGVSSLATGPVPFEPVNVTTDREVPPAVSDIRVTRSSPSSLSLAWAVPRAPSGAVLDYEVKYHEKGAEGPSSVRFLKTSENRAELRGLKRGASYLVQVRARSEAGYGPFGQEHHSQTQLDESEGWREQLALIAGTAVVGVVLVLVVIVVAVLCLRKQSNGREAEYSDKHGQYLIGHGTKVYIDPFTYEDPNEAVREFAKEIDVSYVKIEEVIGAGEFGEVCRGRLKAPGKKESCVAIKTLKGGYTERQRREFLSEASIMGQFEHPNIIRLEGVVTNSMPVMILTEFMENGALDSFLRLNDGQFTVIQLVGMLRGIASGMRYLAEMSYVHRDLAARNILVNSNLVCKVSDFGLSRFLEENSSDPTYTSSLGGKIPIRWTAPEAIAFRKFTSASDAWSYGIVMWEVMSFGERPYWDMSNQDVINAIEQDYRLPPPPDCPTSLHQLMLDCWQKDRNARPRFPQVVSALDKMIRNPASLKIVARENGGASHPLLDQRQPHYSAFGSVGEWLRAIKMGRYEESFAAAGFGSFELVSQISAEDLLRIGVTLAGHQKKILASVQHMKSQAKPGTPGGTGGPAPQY
Sequence of TAOK2 (human) (Q9UL54 whole entry, looked up): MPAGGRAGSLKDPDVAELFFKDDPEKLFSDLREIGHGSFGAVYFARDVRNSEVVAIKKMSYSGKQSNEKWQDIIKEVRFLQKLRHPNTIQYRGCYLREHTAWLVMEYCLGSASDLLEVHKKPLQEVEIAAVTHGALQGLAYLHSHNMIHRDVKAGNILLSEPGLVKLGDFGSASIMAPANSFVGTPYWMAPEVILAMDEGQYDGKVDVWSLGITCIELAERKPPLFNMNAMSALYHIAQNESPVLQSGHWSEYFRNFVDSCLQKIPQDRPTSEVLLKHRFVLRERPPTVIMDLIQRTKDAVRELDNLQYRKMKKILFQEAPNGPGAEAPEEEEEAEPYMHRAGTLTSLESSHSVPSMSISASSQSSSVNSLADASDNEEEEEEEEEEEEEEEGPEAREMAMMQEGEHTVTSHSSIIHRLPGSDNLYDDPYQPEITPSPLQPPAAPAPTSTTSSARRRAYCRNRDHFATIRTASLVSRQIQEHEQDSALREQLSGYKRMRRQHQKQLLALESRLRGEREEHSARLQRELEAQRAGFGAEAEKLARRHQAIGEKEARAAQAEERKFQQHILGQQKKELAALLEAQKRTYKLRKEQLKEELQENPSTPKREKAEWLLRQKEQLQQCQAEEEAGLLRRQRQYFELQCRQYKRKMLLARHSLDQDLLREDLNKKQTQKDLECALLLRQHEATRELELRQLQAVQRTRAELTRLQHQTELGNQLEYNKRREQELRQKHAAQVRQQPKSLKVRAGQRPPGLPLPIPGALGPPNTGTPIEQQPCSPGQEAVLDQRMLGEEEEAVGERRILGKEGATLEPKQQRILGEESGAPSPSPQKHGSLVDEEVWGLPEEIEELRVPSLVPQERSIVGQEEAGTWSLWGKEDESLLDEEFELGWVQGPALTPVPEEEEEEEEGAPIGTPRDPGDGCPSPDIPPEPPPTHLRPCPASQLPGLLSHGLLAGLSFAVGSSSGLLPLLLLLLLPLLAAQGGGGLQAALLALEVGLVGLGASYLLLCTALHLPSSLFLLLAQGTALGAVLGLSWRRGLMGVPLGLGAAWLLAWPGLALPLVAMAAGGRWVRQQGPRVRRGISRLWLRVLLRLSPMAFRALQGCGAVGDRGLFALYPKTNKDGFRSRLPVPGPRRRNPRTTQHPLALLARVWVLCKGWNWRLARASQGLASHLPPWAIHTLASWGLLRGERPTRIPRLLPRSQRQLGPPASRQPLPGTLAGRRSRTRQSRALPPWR
Sequence of JAK3 JH1 catalytic (human) (P52333 whole entry, looked up): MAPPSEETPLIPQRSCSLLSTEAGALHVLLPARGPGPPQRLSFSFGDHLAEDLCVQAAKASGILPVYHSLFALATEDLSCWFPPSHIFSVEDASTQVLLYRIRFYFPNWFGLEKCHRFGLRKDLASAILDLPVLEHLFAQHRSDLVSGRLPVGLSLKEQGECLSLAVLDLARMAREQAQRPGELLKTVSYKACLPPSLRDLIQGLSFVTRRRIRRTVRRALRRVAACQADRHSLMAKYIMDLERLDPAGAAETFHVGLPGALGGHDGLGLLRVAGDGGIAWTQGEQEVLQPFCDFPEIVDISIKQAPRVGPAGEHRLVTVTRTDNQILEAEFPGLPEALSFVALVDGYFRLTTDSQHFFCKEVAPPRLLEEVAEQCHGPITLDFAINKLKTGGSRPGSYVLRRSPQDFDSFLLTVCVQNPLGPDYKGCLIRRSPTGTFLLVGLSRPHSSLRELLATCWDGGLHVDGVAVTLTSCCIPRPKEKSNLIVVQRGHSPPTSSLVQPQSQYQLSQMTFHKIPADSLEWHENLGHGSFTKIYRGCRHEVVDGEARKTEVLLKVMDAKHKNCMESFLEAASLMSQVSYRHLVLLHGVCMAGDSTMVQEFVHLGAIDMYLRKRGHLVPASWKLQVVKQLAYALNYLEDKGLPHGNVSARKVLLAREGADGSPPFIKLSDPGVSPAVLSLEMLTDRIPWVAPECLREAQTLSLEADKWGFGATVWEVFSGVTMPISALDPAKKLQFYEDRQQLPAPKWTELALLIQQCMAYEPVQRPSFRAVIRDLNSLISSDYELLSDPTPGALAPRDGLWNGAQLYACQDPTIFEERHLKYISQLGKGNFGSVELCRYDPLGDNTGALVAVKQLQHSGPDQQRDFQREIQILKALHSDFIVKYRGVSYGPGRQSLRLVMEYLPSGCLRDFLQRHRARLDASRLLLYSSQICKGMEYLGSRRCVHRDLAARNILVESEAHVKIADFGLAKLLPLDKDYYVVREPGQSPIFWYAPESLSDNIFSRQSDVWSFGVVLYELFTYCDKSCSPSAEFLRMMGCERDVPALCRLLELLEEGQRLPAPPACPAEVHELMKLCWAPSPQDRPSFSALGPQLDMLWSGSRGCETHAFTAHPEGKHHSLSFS
Sequence of PIM1 (human) (P11309 whole entry, looked up): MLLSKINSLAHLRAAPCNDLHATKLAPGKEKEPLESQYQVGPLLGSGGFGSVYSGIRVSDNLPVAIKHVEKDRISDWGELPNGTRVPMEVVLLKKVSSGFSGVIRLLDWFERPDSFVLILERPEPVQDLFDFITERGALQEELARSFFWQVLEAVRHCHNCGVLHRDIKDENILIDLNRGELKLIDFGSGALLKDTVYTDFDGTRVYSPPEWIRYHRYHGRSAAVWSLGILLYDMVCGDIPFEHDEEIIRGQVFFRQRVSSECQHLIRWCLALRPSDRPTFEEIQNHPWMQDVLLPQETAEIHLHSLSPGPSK

Work on `O=C(Nc1cccc(Nc2ncc(Br)c(NCCc3cnc[nH]3)n2)c1)N1CCCC1` yielded a kinase still bound, per cent of control (CLK1 (human)) of 13%, a kinase still bound, per cent of control (IKBKB (human)) of 8.4% and a kinase still bound, per cent of control (PLK1 (human)) of 41%. The kinase still bound, per cent of control (DCLK1 (human)) was 35%, the kinase still bound, per cent of control (DYRK2 (human)) was 3.4% and the kinase still bound, per cent of control (CLK2 (human)) was 2.2%. It also gave a kinase still bound, per cent of control (CHEK1 (human)) of 0.4%, a kinase still bound, per cent of control (CDK8 (human)) of 97% and a kinase still bound, per cent of control (CAMKK1 (human)) of 8.8%. It also gave a kinase still bound, per cent of control (TAOK2 (human)) of 5.3%, a kinase still bound, per cent of control (CAMKK2 (human)) of 2% and a kinase still bound, per cent of control (CDC42BPG (human)) of 49%. It also gave a kinase still bound, per cent of control (SBK1 (human)) of 3.6%, a kinase still bound, per cent of control [1] of 0% and a kinase still bound, per cent of control (CHUK (human)) of 4.1%. For the same compound, the kinase still bound, per cent of control (NLK (human)) was 100%, the kinase still bound, per cent of control (STK11 (human)) was 3.2% and the kinase still bound, per cent of control (PRKAA2 (human)) was 0.5%. The kinase still bound, per cent of control (EPHB4 (human)) was 78%, the kinase still bound, per cent of control (MYLK (human)) was 34% and the kinase still bound, per cent of control (PIM3 (human)) was 69%. It also gave a kinase still bound, per cent of control (STK32A (human)) of 51%, a kinase still bound, per cent of control (MAP4K1 (human)) of 13% and a kinase still bound, per cent of control (GRK1 (human)) of 47%. For the same compound, the kinase still bound, per cent of control [2] was 0.25%, the kinase still bound, per cent of control (CaMK1 (human)) was 11% and the kinase still bound, per cent of control (ERBB4 (human)) was 56%. For the same compound, the kinase still bound, per cent of control (FLT4 (human)) was 0.05%, the kinase still bound, per cent of control (TEK (human)) was 12% and the kinase still bound, per cent of control (PIM1 (human)) was 87%. For the same compound, the kinase still bound, per cent of control (CAMK2A (human)) was 27%, the kinase still bound, per cent of control (FRK (human)) was 46% and the kinase still bound, per cent of control (IRAK4 (human)) was 0%. The kinase still bound, per cent of control (NEK6 (human)) was 0.5%, the kinase still bound, per cent of control (STK35 (human)) was 67% and the kinase still bound, per cent of control (RPS6KA4 KD2 (human)) was 0.95%. The kinase still bound, per cent of control (MAPK6 (human)) was 5%, the kinase still bound, per cent of control (TAOK1 (human)) was 0.25% and the kinase still bound, per cent of control (PAK2 (human)) was 45%. For the same compound, the kinase still bound, per cent of control [3] was 26%.
Work on `O=c1cc(N2CCOCC2)oc2c(-c3cccc4c3sc3ccccc34)cccc12` yielded a kinase still bound, per cent of control (CLK1 (human)) of 89%, a kinase still bound, per cent of control (IKBKB (human)) of 100% and a kinase still bound, per cent of control (PLK1 (human)) of 94%. The kinase still bound, per cent of control (DCLK1 (human)) was 84%, the kinase still bound, per cent of control (DYRK2 (human)) was 100% and the kinase still bound, per cent of control (CLK2 (human)) was 65%. It also gave a kinase still bound, per cent of control (CHEK1 (human)) of 100%, a kinase still bound, per cent of control (CDK8 (human)) of 100% and a kinase still bound, per cent of control (CAMKK1 (human)) of 85%. It also gave a kinase still bound, per cent of control (TAOK2 (human)) of 98%, a kinase still bound, per cent of control (CAMKK2 (human)) of 88% and a kinase still bound, per cent of control (CDC42BPG (human)) of 100%. The kinase still bound, per cent of control (SBK1 (human)) was 100%, the kinase still bound, per cent of control [1] was 81% and the kinase still bound, per cent of control (CHUK (human)) was 100%. It also gave a kinase still bound, per cent of control (NLK (human)) of 88%, a kinase still bound, per cent of control (STK11 (human)) of 75% and a kinase still bound, per cent of control (PRKAA2 (human)) of 100%. The kinase still bound, per cent of control (EPHB4 (human)) was 87%, the kinase still bound, per cent of control (MYLK (human)) was 91% and the kinase still bound, per cent of control (PIM3 (human)) was 65%. It also gave a kinase still bound, per cent of control (STK32A (human)) of 100%, a kinase still bound, per cent of control (MAP4K1 (human)) of 90% and a kinase still bound, per cent of control (GRK1 (human)) of 100%. The kinase still bound, per cent of control [2] was 100%, the kinase still bound, per cent of control (CaMK1 (human)) was 91% and the kinase still bound, per cent of control (ERBB4 (human)) was 92%. It also gave a kinase still bound, per cent of control (FLT4 (human)) of 92%, a kinase still bound, per cent of control (TEK (human)) of 100% and a kinase still bound, per cent of control (PIM1 (human)) of 62%. It also gave a kinase still bound, per cent of control (CAMK2A (human)) of 78%, a kinase still bound, per cent of control (FRK (human)) of 91% and a kinase still bound, per cent of control (IRAK4 (human)) of 99%. For the same compound, the kinase still bound, per cent of control (NEK6 (human)) was 100%, the kinase still bound, per cent of control (STK35 (human)) was 80% and the kinase still bound, per cent of control (RPS6KA4 KD2 (human)) was 100%. It also gave a kinase still bound, per cent of control (MAPK6 (human)) of 100%, a kinase still bound, per cent of control (TAOK1 (human)) of 100% and a kinase still bound, per cent of control (PAK2 (human)) of 61%. The kinase still bound, per cent of control [3] was 93%.
`N#CCNC(=O)c1ccc(-c2ccnc(Nc3ccc(N4CCOCC4)cc3)n2)cc1` gave a kinase still bound, per cent of control (CLK1 (human)) of 9.6%, a kinase still bound, per cent of control (IKBKB (human)) of 0.15% and a kinase still bound, per cent of control (PLK1 (human)) of 100%. For the same compound, the kinase still bound, per cent of control (DCLK1 (human)) was 52%, the kinase still bound, per cent of control (DYRK2 (human)) was 76% and the kinase still bound, per cent of control (CLK2 (human)) was 7.4%. For the same compound, the kinase still bound, per cent of control (CHEK1 (human)) was 100%, the kinase still bound, per cent of control (CDK8 (human)) was 100% and the kinase still bound, per cent of control (CAMKK1 (human)) was 27%. The kinase still bound, per cent of control (TAOK2 (human)) was 100%, the kinase still bound, per cent of control (CAMKK2 (human)) was 51% and the kinase still bound, per cent of control (CDC42BPG (human)) was 96%. It also gave a kinase still bound, per cent of control (SBK1 (human)) of 46%, a kinase still bound, per cent of control [1] of 0.3% and a kinase still bound, per cent of control (CHUK (human)) of 0%. For the same compound, the kinase still bound, per cent of control (NLK (human)) was 86%, the kinase still bound, per cent of control (STK11 (human)) was 61% and the kinase still bound, per cent of control (PRKAA2 (human)) was 74%. For the same compound, the kinase still bound, per cent of control (EPHB4 (human)) was 100%, the kinase still bound, per cent of control (MYLK (human)) was 100% and the kinase still bound, per cent of control (PIM3 (human)) was 100%. The kinase still bound, per cent of control (STK32A (human)) was 100%, the kinase still bound, per cent of control (MAP4K1 (human)) was 11% and the kinase still bound, per cent of control (GRK1 (human)) was 100%. The kinase still bound, per cent of control [2] was 13%, the kinase still bound, per cent of control (CaMK1 (human)) was 59% and the kinase still bound, per cent of control (ERBB4 (human)) was 100%. For the same compound, the kinase still bound, per cent of control (FLT4 (human)) was 48%, the kinase still bound, per cent of control (TEK (human)) was 100% and the kinase still bound, per cent of control (PIM1 (human)) was 100%. The kinase still bound, per cent of control (CAMK2A (human)) was 26%, the kinase still bound, per cent of control (FRK (human)) was 98% and the kinase still bound, per cent of control (IRAK4 (human)) was 64%. For the same compound, the kinase still bound, per cent of control (NEK6 (human)) was 6.2%, the kinase still bound, per cent of control (STK35 (human)) was 57% and the kinase still bound, per cent of control (RPS6KA4 KD2 (human)) was 100%. For the same compound, the kinase still bound, per cent of control (MAPK6 (human)) was 71%, the kinase still bound, per cent of control (TAOK1 (human)) was 32% and the kinase still bound, per cent of control (PAK2 (human)) was 100%.
